Test results: paper PMC9606955, “In Vitro Activity of Essential Oils Distilled from Colombian Plants against Candida auris and Other Candida Species with Different Antifungal Susceptibility Profiles” (Molecules, 2022)
In brackets after ≈: the same amount, converted by molar mass.

Assays:
C. auris Ca 41 = assay: MIC, CLSI M27 broth microdilution; format: cell-based, Candida auris; details: C. auris Ca 41; for MIC Range / MIC: antifungal drugs; for MIC: Candidozyma auris, CA41, geometric mean, read-out: MIC GM
Procedure, shortened: (§1)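 CLSI M27 (4th ed.) broth microdilution, modified for essential oils and terpenes: yeasts grown on SDA 24 h at 35 °C, inoculum 2.5 × 10^3 CFU/mL in RPMI 1640-MOPS, two-fold dilutions at 0.5–256 µg/mL final. Visual MIC after 24 h at 35 °C; ≥3 runs in duplicate, reported as geometric mean and range.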

C. auris Ca 32 = assay: MIC, CLSI M27 broth microdilution; format: cell-based, Candida auris; details: C. auris Ca 32, antifungal drugs; for MIC: Candidozyma auris, CA32, geometric mean, read-out: MIC GM
Procedure, shortened: as §1

C. auris Ca 46 = assay: MIC, CLSI M27 broth microdilution; format: cell-based, Candida auris; details: C. auris Ca 46; for MIC Range / MIC: antifungal drugs; for MIC: Candidozyma auris, CA46, geometric mean, read-out: MIC GM
Procedure, shortened: as §1

C. auris Ca 45 = assay: MIC, CLSI M27 broth microdilution; format: cell-based, Candida auris; details: C. auris Ca 45; for MIC Range / MIC: antifungal drugs; for MIC: Candidozyma auris, CA45, geometric mean, read-out: MIC GM
Procedure, shortened: as §1

C. auris CDC B11903 = assay: MIC, CLSI M27 broth microdilution; format: cell-based, Candida auris; details: C. auris CDCB11903, antifungal drugs; for MIC: Candidozyma auris, geometric mean, read-out: MIC GM
Procedure, shortened: as §1

C. auris Ca 1 = assay: MIC, CLSI M27 broth microdilution; format: cell-based, Candida auris; details: C. auris Ca 1, antifungal drugs; for MIC: Candidozyma auris, CA1, geometric mean, read-out: MIC GM
Procedure, shortened: as §1

C. auris Ca 17 = assay: MIC, CLSI M27 broth microdilution; format: cell-based, Candida auris; details: C. auris Ca 17; for MIC Range / MIC: antifungal drugs; for MIC: Candidozyma auris, CA17, geometric mean, read-out: MIC GM
Procedure, shortened: as §1

C. auris Ca 10 = assay: MIC, CLSI M27 broth microdilution; format: cell-based, Candida auris; details: antifungal drugs; for MIC: Candidozyma auris, CA10, geometric mean
Procedure, shortened: as §1

C. auris Ca 9 = assay: MIC, CLSI M27 broth microdilution; format: cell-based, Candida auris; details: C. auris Ca 9, antifungal drugs; for MIC: Candidozyma auris, CA9, geometric mean, read-out: MIC GM
Procedure, shortened: as §1

C. tropicalis ATCC 750 = assay: MIC, CLSI M27 broth microdilution; format: cell-based, Candida tropicalis; details: antifungal drugs; for MIC: Candida tropicalis, ATCC750, geometric mean
Procedure, shortened: as §1

[1] = system: C. tropicalis ATCC 200956; assay: MIC, CLSI M27 broth microdilution; format: cell-based, Candida tropicalis; details: C. tropicalis ATCC 200956; for MIC Range / MIC: antifungal drugs; for MIC: Candida tropicalis, ATCC200956, geometric mean, read-out: MIC GM
Procedure, shortened: as §1

[2] = system: C. orthopsilosis MUM 17.13; assay: MIC, CLSI M27 broth microdilution; format: cell-based, Candida orthopsilosis; details: C. orthopsilosis MUM 17.13, antifungal drugs; for MIC: Lodderomyces orthopsilosis, MUM17.13, geometric mean, read-out: MIC GM
Procedure, shortened: as §1

C. krusei ATCC 6258 = assay: MIC, CLSI M27 broth microdilution; format: cell-based, Candida krusei; details: C. krusei ATCC 6258, antifungal drugs; for MIC: Pichia kudriavzevii, ATCC6258, geometric mean, read-out: MIC GM
Procedure, shortened: as §1

[3] = system: C. albicans ATCC 10231, C. tropicalis ATCC 200956, and C. auris CDC B11903; assay: Time–kill assay, control drugs; format: cell-based, Candida spp.; details: fungicidal and fungistatic control drugs
Method: Time–kill assays with the L. origanoides (thymol + p-cymene) chemotype (Code 0018) EO, thymol, FLC, and AMB against C. albicans ATCC 10231, C. tropicalis ATCC 200956, and C. auris CDC B11903 were performed according to the protocol published by Klebser et al. with some modifications. […] Absorbance at λ = 490 nm was measured every 2 h with a Multiskan SkyHigh Microplate Spectrophotometer. AMB and FLC were included as fungicidal and fungistatic control drugs, respectively.

C. albicans ATCC 10231 = assay: MIC, CLSI M27 broth microdilution; format: cell-based, Candida albicans; details: antifungal drugs; for MIC: Candida albicans, ATCC10231, geometric mean
From the text: (§2) The fungal strains used in this study were C. albicans ATCC 10231, C. albicans ATCC 64550, C. parapsilosis ATCC 22019, C. tropicalis ATCC 750, C. tropicalis ATCC 200956 (resistant to azoles and AMB), C. glabrata LMDM 34 (resistant to echinocandins), C. metapsilosis MUM 15.12, C. orthopsilosis MUM 17.13, C. lusitaniae MUM 17.08, C. krusei ATCC 6258 (Issatchenkia orientalis ATCC 6258), and C. auris CDC B11903. Additionally, nine clinical isolates were included: C. parapsilosis Synlab 406 (FLC-resistant) and eight C. auris isolates identified by MALDI-TOF MS (Bruker Daltonics, Bremen, Germany) according to Zhao et al.. These yeasts were cultured on Sabouraud Dextrose Agar (SDA; Sigma-Aldrich, St. Louis, MO, USA) for 24 h at 35 °C.
(§3) Antifungal susceptibility testing was performed according to Clinical and Laboratory Standards Institute M27, 4th Edition (CLSI standard M27, 4th Edition). Some modifications were applied for evaluation of the antifungal activity of EOs and terpenes. Initially, a screening was carried out to determine the antifungal activity of the EOs and of commercial terpenes. Stock concentrations of EOs and terpenes were prepared at 512 µg/mL and an inoculum of 2.5 × 10^3 CFU/mL of each yeast was prepared in RPMI 1640-MOPS (Sigma- Aldrich St. Louis, MO, USA). Thereafter, 100 µL of each stock solution of EOs or terpenes was dispensed in 96-well microdilution plates (Corning®, Costar®, NY, USA) and 100 µL of each yeast inoculum was added. […] Microdilution plates were incubated at 35 °C and, after 24 h, the presence or absence of growth was visually checked using a manual mirror viewer and then compared with the amount of growth in the control (no EO or terpene). Compounds able to inhibit yeast growth were tested to determine the minimal inhibitory concentration (MIC) as follows: 100 µL of 10 two-fold dilutions of the EOs or commercial terpenes was dispensed in 96-well microplates and the yeast inoculum was added. Final concentrations of the EOs or terpenes ranged from 0.5 µg/mL to 256 µg/mL. Microdilution plates were incubated at 35 °C for 24 h. MICs were visually determined at the lowest concentration that produced visual inhibition compared to the growth control. The assays were performed at least three times in duplicate on different days. The results were expressed as geometric means (GM) and ranges. As an antifungal susceptibility testing control, the activity of ITC and AMB against the reference strains C. krusei ATCC 6258 and C. parapsilosis ATCC 22019 was evaluated in all experiments following the CLSI standard M27, 4th Edition. It was mandatory that the MIC values remained in the accepted range.

C. albicans ATCC 64550 = assay: MIC, CLSI M27 broth microdilution; format: cell-based, Candida albicans; details: antifungal drugs; for MIC: Candida albicans, ATCC64550, geometric mean
From the text: as §2, §3

C. glabrata LMDM 34 = assay: MIC, CLSI M27 broth microdilution; format: cell-based, Candida glabrata; details: antifungal drugs; for MIC: Nakaseomyces glabratus, LMDM34, geometric mean
From the text: as §2, §3

| Compound | MIC Range (C. auris Ca 41) [µg/mL] | MIC (C. auris Ca 41) [µg/mL] | MIC Range (C. auris Ca 32) [µg/mL] | MIC (C. auris Ca 32) [µg/mL] | MIC Range (C. auris Ca 46) [µg/mL] | MIC (C. auris Ca 46) [µg/mL] | MIC Range (C. auris Ca 45) [µg/mL] | MIC (C. auris Ca 45) [µg/mL] | MIC Range (C. auris CDC B11903) [µg/mL] | MIC (C. auris CDC B11903) [µg/mL] | MIC Range (C. auris Ca 1) [µg/mL] | MIC (C. auris Ca 1) [µg/mL] | MIC Range (C. auris Ca 17) [µg/mL] | MIC (C. auris Ca 17) [µg/mL] | MIC (C. auris Ca 10) [µg/mL] | MIC Range (C. auris Ca 10) [µg/mL] | MIC Range (C. auris Ca 9) [µg/mL] | MIC (C. auris Ca 9) [µg/mL] | MIC (C. tropicalis ATCC 750) [µg/mL] | MIC Range (C. tropicalis ATCC 750) [µg/mL] | other results |
| --- | --- | --- | --- | --- | --- | --- | --- | --- | --- | --- | --- | --- | --- | --- | --- | --- | --- | --- | --- | --- | --- |
| OC(Cn1cncn1)(Cn1cncn1)c1ccc(F)cc1F [FLC, fluconazole] | 2 (≈ 6.53 µM) | 2 (≈ 6.53 µM) | 8 to 16 | 11.3 (≈ 36.9 µM) | 2 to 4 | 2.8 (≈ 9.14 µM) | 2 (≈ 6.53 µM) | 2 (≈ 6.53 µM) | 1 to 2 | 1.4 (≈ 4.57 µM) | 4 (≈ 13.1 µM) | 4 (≈ 13.1 µM) | 32 (≈ 104 µM) | 32 (≈ 104 µM) | 4 (≈ 13.1 µM) | 4 (≈ 13.1 µM) | 4 (≈ 13.1 µM) | 4 (≈ 13.1 µM) | 1.4 (≈ 4.57 µM) | 1 to 2 | susceptibility category (C. auris Ca 17; CDC breakpoints): FLC-resistant; MIC Range [1]: >64 µg/mL; MIC [1]: > 64 µg/mL; MIC Range [2]: 1 µg/mL (≈ 3.27 µM); MIC [2]: 1 µg/mL (≈ 3.27 µM); MIC Range (C. krusei ATCC 6258): 8 µg/mL (≈ 26.1 µM); MIC (C. krusei ATCC 6258): 8 µg/mL (≈ 26.1 µM); effect in time–kill assay (control drugs) [3]: fungistatic; MIC (C. albicans ATCC 10231): 4 µg/mL (≈ 13.1 µM); MIC Range (C. albicans ATCC 10231): 4 µg/mL (≈ 13.1 µM); MIC (C. albicans ATCC 64550): 5.6 µg/mL (≈ 18.3 µM); MIC Range (C. albicans ATCC 64550): 4 to 8 µg/mL; MIC (C. glabrata LMDM 34): 2.8 µg/mL (≈ 9.14 µM); MIC Range (C. glabrata LMDM 34): 2 to 4 µg/mL |
| C[C@@H]1[C@H](O)[C@@H](C)/C=C/C=C/C=C/C=C/C=C/C=C/C=C/[C@H](O[C@@H]2O[C@H](C)[C@@H](O)[C@H](N)[C@@H]2O)C[C@@H]2O[C@](O)(C[C@@H](O)C[C@@H](O)[C@H](O)CC[C@@H](O)C[C@@H](O)CC(=O)O[C@H]1C)C[C@H](O)[C@H]2C(=O)O [AMB, amphotericin B] | 1 (≈ 1.08 µM) | 1 (≈ 1.08 µM) | 0.12 to 0.5 | 0.19 (≈ 0.206 µM) | 1 to 2 | 1.4 (≈ 1.52 µM) | 1 to 2 | 1.41 (≈ 1.53 µM) | 0.06 to 0.12 | 0.07 (≈ 0.0758 µM) | 0.12 to 0.25 | 0.2 (≈ 0.216 µM) | 0.06 to 0.25 | 0.15 (≈ 0.162 µM) | 0.18 (≈ 0.195 µM) | 0.12 to 0.25 | 0.12 to 0.5 | 0.25 (≈ 0.271 µM) | 0.11 (≈ 0.119 µM) | 0.06 to 0.12 | susceptibility category (C. auris Ca 41; CDC breakpoints): AMB-resistant; susceptibility category (C. auris Ca 46; CDC breakpoints): AMB-resistant; susceptibility category (C. auris Ca 45; CDC breakpoints): AMB-resistant; MIC Range [1]: 1 to 2 µg/mL; susceptibility category ([1]; resistance confirmed): resistance; MIC [1]: 1.41 µg/mL (≈ 1.53 µM); MIC Range [2]: <0.03 µg/mL; MIC [2]: < 0.03 µg/mL; MIC Range (C. krusei ATCC 6258): 0.12 to 0.25 µg/mL; MIC (C. krusei ATCC 6258): 0.15 µg/mL (≈ 0.162 µM); effect in time–kill assay (control drugs) [3]: fungicidal; MIC (C. albicans ATCC 10231): 0.04 µg/mL (≈ 0.0433 µM); MIC Range (C. albicans ATCC 10231): 0.03 to 0.12 µg/mL; MIC (C. albicans ATCC 64550): 0.04 µg/mL (≈ 0.0433 µM); MIC Range (C. albicans ATCC 64550): 0.03 to 0.12 µg/mL; MIC (C. glabrata LMDM 34): 0.06 µg/mL (≈ 0.0649 µM); MIC Range (C. glabrata LMDM 34): 0.06 to 0.12 µg/mL |
